According to ChEMBL document CHEMBL1201862, “PubChem BioAssay data set” (2004):
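Exposure lasted 48 hours, with cells grown in 96-well plates and compounds tested at five concentrations. GI50 = concentration required for 50% inhibition of growth.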 Active and inactive are the calls of the source. No stated cut-off is given here; in the data, active = GI50 up to about 1.1 µM and inactive = higher.

Experiments:
Test in all cases: NCI-60 cell line screen, 48 h
[1] = system: MDA-N
[2] = system: SF-539
[3] = system: SNB-75
[4] = system: IGROV-1
[5] = system: COLO 205
[6] = system: U-251
[7] = system: SN12C
[8] = system: SK-MEL-28
[9] = system: OVCAR-4
[10] = system: UO-31
[11] = system: SF-295
[12] = system: BT-549
[13] = system: MCF7
[14] = system: MDA-MB-231
[15] = system: MDA-MB-435
[16] = system: HCT-116
[17] = system: NCI-H226
[18] = system: UACC-62
[19] = system: OVCAR-5
[20] = system: A498

Structure (SMILES)	GI50 [1]	GI50 [2]	GI50 [3]	GI50 [4]	GI50 [5]	GI50 [6]	GI50 [7]	GI50 [8]	GI50 [9]	GI50 [10]	GI50 [11]	GI50 [12]	GI50 [13]	GI50 [14]	GI50 [15]	GI50 [16]	GI50 [17]	GI50 [18]	GI50 [19]	GI50 [20]
CN(C)c1ccc(/N=N\c2cccc3ncccc23)cc1	42 µM (inactive)	> 100 µM (inactive)	36.6 µM (inactive)	< 0.0159 µM (active)	64 µM (inactive)	> 74.1 µM (inactive)	99.8 µM (inactive)	> 100 µM (inactive)	> 100 µM (inactive)	8.53 µM (inactive)	> 78 µM (inactive)	65.5 µM (inactive)	0.063 µM (active)	41.1 µM (inactive)	29.4 µM (inactive)	52.7 µM (inactive)	> 72.3 µM (inactive)	97.5 µM (inactive)	–	–
O=C(/C=C/c1ccc(O)c([N+](=O)[O-])c1)CC(=O)/C=C/c1ccc(O)c([N+](=O)[O-])c1	86.5 µM (inactive)	> 100 µM (inactive)	> 100 µM (inactive)	24.9 µM (inactive)	47.4 µM (inactive)	21.4 µM (inactive)	> 100 µM (inactive)	33.9 µM (inactive)	79.3 µM (inactive)	> 100 µM (inactive)	62.5 µM (inactive)	> 100 µM (inactive)	53.5 µM (inactive)	23.4 µM (inactive)	36.1 µM (inactive)	41.6 µM (inactive)	> 100 µM (inactive)	88.1 µM (inactive)	44.9 µM (inactive)	–
Cc1cc(NS(=O)(=O)c2ccc(Nc3c4ccccc4nc4ccc(C(=O)Nc5ccc(S(=O)(=O)N=C(N)N)cc5)cc34)cc2)no1	> 100 µM (inactive)	> 100 µM (inactive)	> 100 µM (inactive)	> 100 µM (inactive)	> 100 µM (inactive)	> 100 µM (inactive)	> 100 µM (inactive)	> 100 µM (inactive)	> 100 µM (inactive)	> 100 µM (inactive)	> 100 µM (inactive)	> 100 µM (inactive)	> 100 µM (inactive)	> 100 µM (inactive)	> 100 µM (inactive)	> 100 µM (inactive)	> 100 µM (inactive)	> 100 µM (inactive)	> 100 µM (inactive)	–
Cc1cccc(/C=N/NC(=S)Nc2ccccc2)n1	4 µM (inactive)	2.89 µM (inactive)	3.67 µM (inactive)	2.84 µM (inactive)	2.75 µM (inactive)	4.32 µM (inactive)	2.8 µM (inactive)	12.2 µM (inactive)	6.31 µM (inactive)	3.43 µM (inactive)	6.3 µM (inactive)	7.53 µM (inactive)	2.89 µM (inactive)	–	7.6 µM (inactive)	3.47 µM (inactive)	6.37 µM (inactive)	3.68 µM (inactive)	5.85 µM (inactive)	15.3 µM (inactive)
Cc1cc2nc(N3C(=O)/C(=C/c4ccc(Oc5ccccc5)cc4)N=C3c3ccccc3)sc2cc1C	25.2 µM (inactive)	–	62.2 µM (inactive)	37.4 µM (inactive)	20.9 µM (inactive)	64.6 µM (inactive)	> 100 µM (inactive)	69.7 µM (inactive)	45.7 µM (inactive)	50.7 µM (inactive)	33 µM (inactive)	43 µM (inactive)	24.2 µM (inactive)	> 100 µM (inactive)	19.5 µM (inactive)	40.6 µM (inactive)	–	35.4 µM (inactive)	58.1 µM (inactive)	54.7 µM (inactive)
Cn1c([C@H](C#N)C(=O)c2cc(O)ccc2[N+](=O)[O-])nc2ccccc21	> 100 µM (inactive)	> 100 µM (inactive)	> 100 µM (inactive)	> 100 µM (inactive)	> 100 µM (inactive)	> 100 µM (inactive)	> 100 µM (inactive)	> 100 µM (inactive)	> 100 µM (inactive)	> 100 µM (inactive)	> 100 µM (inactive)	16 µM (inactive)	> 100 µM (inactive)	> 100 µM (inactive)	9.51 µM (inactive)	> 100 µM (inactive)	–	> 100 µM (inactive)	> 100 µM (inactive)	> 100 µM (inactive)
